These results are taken from article PMC11514582, “Leveraging the Aggregated Protein Dye YAT2150 for Malaria Chemotherapy” (Pharmaceutics, 2024).

Series [1] can be described thus: Cytotoxicity assay in NCI-H460 (MTT). Format: cell-based. The following applies: human, NCI-H460 cells, read-out: NCI-H460 inhibition (CC50).
Procedure: THP-1 human acute monocytic leukemia cells and NCI-H460 human lung carcinoma cells were grown in RPMI supplemented with 10% FBS. Hep-G2 human hepatocellular carcinoma cells were cultured in Eagle’s minimum essential medium (EMEM) supplemented with 10% FBS. A2780 human ovarian carcinoma cells were grown in RPMI supplemented with 10% FBS and 2 mM L-glutamine. MCF-7 human breast adenocarcinoma cells were cultured in EMEM containing 2 mM L-glutamine and Earle’s balanced salt solution adjusted with 1.5 g/L sodium bicarbonate, 0.1 mM non-essential amino acids, and 1 mM sodium pyruvate and supplemented with 10% FBS. […] Except for Caco-2 and HUVEC, inhibition of cell growth was evaluated using a protocol based on monitoring the transformation into formazan of the tetrazolium salt of MTT (3-(4,5-dimethylthiazol-2-yl)-2,5-diphenyltretrazolium bromide) by metabolically active cells. […] After 96 further h of incubation in the same conditions, 10 µL of a 5 mg/mL MTT solution in PBS was added to each sample, and the incubation was resumed for another 4 h. […] The absorbance measurement range was framed between one sample containing 4000 cells in plain growth medium (to determine the stable cell concentration) and another sample containing an equal cell number in growth medium supplemented with growth factors (to measure the maximum cell growth at 96 h).
Series [2] has as its system P. berghei ookinete development. The series is described as follows: Ex vivo gametocyte-to-ookinete transition inhibition (ookinete maturation) assay. It counts as cell-based, Plasmodium berghei. Conditions: ex vivo, 24 h at 21 °C. The protocol: Eight days before ookinete production, 100 µL of a red blood cell (RBC) pellet containing the Plasmodium berghei circumsporozoite protein and thrombospondin-related adhesive protein (TRAP)-related protein (CTRP)-green fluorescent protein (GFP) strain (CTRP-GFP, which expresses GFP when reaching ookinete stage, kindly provided by Inga Siden-Kiamos) in cryopreservation solution (RBC pellet:RPMI:30% glycerol in water, 1:1:2) was administered intraperitoneally (i.p.) to a BALB/c mouse (Charles River Laboratories, Wilmington, MA, USA). […] The effect of drugs on gametocyte-to-ookinete conversion was assessed in three independent replicas by plating 120 µL of each culture treated with serial dilutions of the compounds in 96-well plates and incubated for 24 h at 21 °C with orbital shaking at 50 rpm (modified from). Finally, samples diluted 1:100 in PBS were analyzed in an LSRFortessa flow cytometer (BD Biosciences, Franklin Lakes, NJ, USA) set up with the 4 lasers, 20 parameters standard configuration. The GFP positive cell population was counted (λexcitation: 488 nm; λemission: 525/40 nm) using BD FACSDiva software 6.1.3 (BD Biosciences) for data collection and Flowing Software 2.5.1 (Turku Center for Biotechnology, Turku, Finland) for analysis.

The subject of series [3] is P. falciparum asexual blood stages. Description: microbe, parasite or virus in culture. The following applies: Plasmodium falciparum.
Procedure: The asexual blood stages of P. falciparum parasites of the 3D7 strain (Malaria Research and Reference Reagent Resource Center, Manassas, VA, USA) were cultured in group B human RBCs at 3% hematocrit, which was kept throughout the experiments, and incubated in RPMIc. Parasites were maintained at 37 °C under an atmosphere of 5% O2, 5% CO2, and 90% N2. […] The parasites were then cultured under standard conditions for 48 h, allowing for a complete replication cycle. After the incubation period, 3 µL of culture from each well was mixed with 197 µL of PBS containing 0.1 µM Syto 11 (Thermo Fisher Scientific, Inc.) to obtain a final concentration of 1 × 10^6 to 10 × 10^6 cells/mL. Parasitemia levels were measured using an LSRFortessa flow cytometer equipped with a standard configuration of four lasers and 20 parameters. Single-cell populations were identified on a forward-side scatter plot. […] The inhibition data were then transformed using sigmoidal fitting to determine IC50.
For stage arrest assays, P. falciparum cultures were tightly synchronized in schizont stages by repeated treatment with 70% Percoll (GE Healthcare, Chicago, IL, USA) [26, 27]. […] Pictures were taken with a Nikon Eclipse 50i microscope equipped with a DS-Fi1 camera (Nikon Corporation, Tokyo, Japan).
Series [4] can be described thus: Cytotoxicity assay in HUVEC (resazurin). Format: cell-based. The following applies: human, read-out: HUVEC inhibition (CC50).
The nature of series [5]: Cytotoxicity assay in HEP-G2 (MTT). It counts as cell-based. Conditions: human, Hep-G2 cells, read-out: HEP-G2 inhibition (CC50).
For series [6], the system named is P. berghei oocysts in A. gambiae mosquitoes. Description: Membrane blood feeding assay (oocyst production in mosquitoes). It counts as in vivo, Plasmodium berghei. The following applies: 10 µM in blood meal; 7 days. On the procedure: The Anopheles gambiae mosquito G3 strain was reared under standard conditions at 28 °C and 80% humidity. One to two days before blood feeding, the mosquitoes were fed penicillin (20 U/mL) and streptomycin (20 μg/mL) in the sugar meal (10% sucrose). Mice were infected with the P. berghei mutant Bergreen, which constitutively expresses GFP [18]. Blood was obtained by heart puncture of one mouse, and aliquoted in two tubes that were immediately placed at 37 °C. YAT2150 at a final concentration of 10 µM diluted from a stock solution in dimethyl sulfoxide (DMSO) was added to one tube. The control tube contained the same concentration of DMSO (0.5%). After the feeding carried out in membrane feeders for 60 min, mosquitoes were kept at 19 °C and provided with sugar meal containing the antibiotics as above. Seven days after feeding, the mosquitoes were dissected in PBS, mounted in […]®, and GFP-positive oocysts were counted under an Axioskop 2 microscope (Zeiss, Oberkochen, Germany).

For series [7] the following is noted: cited from earlier work.

The structures appear in SMILES notation. “And” between values parts separate entries of the source, which are not always exact repeats. Identical values can stand only once. Like-named read-outs stand apart in the source and are kept apart here.

A word on the CC50: it is the concentration at which the toxic effect on the cells reaches its halfway point. Broadly, the IC50 is the point on the concentration scale where inhibition reaches its midpoint. A word on the IC80: it is the concentration at which the effect reaches the 80% level. For the compound `CCN(CC)c1ccc(/C=C/c2cc[n+](CCCCCCCCCC[n+]3ccc(/C=C/c4ccc(N(CC)CC)cc4)c(C)c3)cc2C)cc1` [YAT2150], the CC50 at 96 h stood at 6760 ± 270 nM in series [1] and 2540 ± 80 nM in series [5]. For the same compound, the “concentration that abolished ookinete production” value in series [2] is “ca. 0.5 µM”. The IC50 in series [3] (3D7, 48 h, read-out: IC50 in P. falciparum asexual blood stages) was found to be 90.5 ± 7 nM; in series [3] (2 h, read-out: IC50 ± SEM) it was 224 ± 27 nM. For the same compound, in series [3] (3D7, read-out: IC80 (stage arrest assay)), the IC80 is 200 nM. The 50% cytotoxic concentration (CC50) at 48 h in series [4] was determined as 14800 ± 3800 nM. Further, in series [6], the “oocyst number/midgut compared to the control” value was “significantly reduced”. Also, the “prevalence of infection compared to the control” value in series [6] is on record as “significantly reduced”. The “Transport through Caco-2 AB (Papp)” value in series [7] (apical to basolateral) is recorded as 207.6 ± 11.6 ^7 nm/s. The “Transport through Caco-2 Efflux ratio” value in series [7] is 0.5 and 0.48 ± 0.03 ^7.
